Data on 2 compounds can be found in EPA's ToxRefDB 2.

Series [1] has as its system mouse. The conditions noted are these: Subchronic oral toxicity in rodents, cd1, Feed, dose end: 13 week, group: systemic.
The subject of series [2] is rat. As to conditions: Subchronic oral toxicity in rodents, wistar, Feed, dose end: 14 week, group: systemic.
For series [3], the system named is dog. The conditions noted are these: Chronic toxicity; beagle; Oral; Feed; dose end: 52 week; group: systemic; systemic / organ weight / adrenal gland / relative to body weight + systemic / organ weight / testes / relative to body weight + systemic / ….
The subject of series [4] is mouse. As to conditions: Carcinogenicity, cd1, Oral, Feed, dose end: 18 month, group: systemic.
Series [5] relates to dog. As to conditions: Subchronic oral toxicity in nonrodent, beagle, Feed, dose end: 14 week, group: systemic.
Series [6] concerns rat. The conditions noted are these: Multigenerational reproductive toxicity study, wistar, Oral, Feed, dose end: 2 generation.
The subject of series [7] is rat. The conditions noted are these: Subchronic oral toxicity in rodents, wistar, Feed, dose end: 13 week, group: systemic, systemic / clinical chemistry / alanine aminotransferase (alt/sgpt) / alanine aminotransferase (alt/sgpt) + systemic / clinical chemistry / ….
The test system of series [8] is rat. As to conditions: Combined chronic toxicity/carcinogenicity, wistar, Oral, Feed, dose end: 120 week, group: systemic.
The mark [9] stands for this setting: systemic / pathology microscopic / liver / hypertrophy + systemic / pathology microscopic / testes / hypertrophy.
Setting [10] is: systemic / pathology microscopic / liver / hypertrophy + systemic / pathology microscopic / testes / hypertrophy + systemic / clinical ….
Setting [11] is: systemic / clinical chemistry / thyroid stimulating hormone (thyrotropin) (tsh) / thyroid stimulating hormone (=thyrotropin) (tsh).
Setting [12] is: systemic / organ weight / adrenal gland / nos + systemic / organ weight / kidney / absolute + systemic / organ weight / kidney / relative to….
[13] abbreviates: systemic / pathology microscopic / adrenal gland / pigmentation.
Where [14] appears, read: systemic / clinical chemistry / alderin epoxidase / alderin epoxidase + systemic / clinical chemistry / ethoxycoumarin deethylase / ….
The mark [15] stands for this setting: systemic / organ weight / adrenal gland / relative to body weight + systemic / pathology microscopic / adrenal gland / vacuolization ….
The mark [16] stands for this setting: group: offspring, systemic / in life observation / body weight / offspring (pup) weight + systemic / in life observation / body weight / offspring (pup) ….
[17] abbreviates: group: parental, systemic / organ weight / liver / absolute + systemic / organ weight / liver / relative to body weight.
Setting [18] is: systemic / clinical chemistry / alanine aminotransferase (alt/sgpt) / alanine aminotransferase (alt/sgpt) + systemic / clinical chemistry / ….
Setting [19] is: systemic / pathology microscopic / liver / basophilic focus.

Molecules are shown by their SMILES.

Turning to `CCC(C)(C)C(=O)OC1=C(c2ccc(Cl)cc2Cl)C(=O)OC12CCCCC2` [Spirodiclofen], the LEL came to 164 mg/kg/day in the series on mouse [1] (setting [9]); 8.1 mg/kg/day with rat [2] (setting [11]); 4.33 mg/kg/day with dog [3]; 5.1 mg/kg/day in the series on mouse [4] (setting [13]); 7.7 mg/kg/day in the series with dog [5] (setting [14]); 30.2 mg/kg/day in the series on rat [6] (setting [16]). Also, the LEL in the series on rat [6] (setting [17]) came to 5.2 mg/kg/day. The LOAEL (commonly the lowest dose or exposure tested at which an adverse effect was seen) was found to be 164 mg/kg/day in the series on mouse [1] (setting [9]); 47.1 mg/kg/day in the series on rat [2] (systemic / pathology microscopic / adrenal gland / vacuolization cytoplasmic); 4.33 mg/kg/day with dog [3]; 610 mg/kg/day with mouse [4] (setting [12]); 8.4 mg/kg/day in the series with dog [5] (setting [15]); 30.2 mg/kg/day in the series with rat [6] (setting [16]). The LOAEL in the series with rat [6] (group: parental, systemic / in life observation / body weight / body weight + systemic / organ weight / liver / absolute) turned out to be 26.2 mg/kg/day. The NEL is 15 mg/kg/day in the series with mouse [1] (setting [10]); < 8.1 mg/kg/day with rat [2] (setting [11]); 1.38 mg/kg/day with dog [3]; < 5.1 mg/kg/day in the series on mouse [4] (setting [13]); < 7.7 mg/kg/day with dog [5] (setting [14]); 6.4 mg/kg/day in the series with rat [6] (setting [16]). For the same compound, the NEL in the series with rat [6] (setting [17]) was < 5.2 mg/kg/day. In addition, the NOAEL – broadly, the highest dose or exposure tested at which no adverse effect was seen – with mouse [1] (setting [10]) was 15 mg/kg/day; in the series on rat [2] (systemic / pathology microscopic / adrenal gland / vacuolization cytoplasmic + systemic / clinical chemistry / alanine aminotransferase (alt…) it was 8.1 mg/kg/day; with dog [3] it was 1.38 mg/kg/day; with mouse [4] (setting [12]), 4.1 mg/kg/day; in the series on dog [5] (setting [15]), < 8.4 mg/kg/day; in the series on rat [6] (setting [16]), 6.4 mg/kg/day. In addition, the no observed adverse effect level (NOAEL) in the series on rat [6] (group: parental, systemic / in life observation / body weight / body weight + systemic / organ weight / liver / absolute + systemic / in life observation / …) amounted to 5.2 mg/kg/day.
As for `O=C(NC(=O)c1c(F)cccc1F)Nc1cc(Cl)c(F)c(Cl)c1F` [Teflubenzuron], in the series on rat [7], the LEL was found to be 81.6 mg/kg/day, the LOAEL worked out at 81.6 mg/kg/day, the NEL stood at 8 mg/kg/day and the NOAEL was determined as 8 mg/kg/day. Moreover, in the series on rat [8] (setting [18]), the LOAEL was 26 mg/kg/day and the NOAEL worked out at 5.1 mg/kg/day. For the same compound, in the series on rat [8] (setting [19]), the LEL amounted to 1.3 mg/kg/day and the NEL was < 1.3 mg/kg/day.
